Common to all, as to experiment: fluorescent cephalosporin
Assay type in all cases: biochemical

One assay has as its target VIM-2 (Pseudomonas aeruginosa, UniProt Q9K2N0). As to conditions: read-out: VIM-2 IC50; […] min pre-incubation, FC5 substrate, HEPES.
Another assay concerns the target IMP-28 (Klebsiella oxytoca, UniProt G4WB26). The conditions noted are these: read-out: IMP-28 IC50; […] min pre-incubation, FC5 substrate, HEPES.
For a further assay, the target named is NDM-1 (Klebsiella pneumoniae, UniProt C7C422).
Chain of NDM-1 (C7C422 29-270, looked up): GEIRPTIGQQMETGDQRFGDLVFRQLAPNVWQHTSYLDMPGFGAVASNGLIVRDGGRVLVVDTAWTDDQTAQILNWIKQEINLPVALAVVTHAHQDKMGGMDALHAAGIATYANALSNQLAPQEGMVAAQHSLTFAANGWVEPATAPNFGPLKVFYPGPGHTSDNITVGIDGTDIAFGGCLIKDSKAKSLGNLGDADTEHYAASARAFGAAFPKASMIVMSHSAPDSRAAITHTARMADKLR

The IC50 is the midpoint of a concentration-inhibition curve.

The structures appear in SMILES notation.

Chain of IMP-28 (G4WB26 20-246): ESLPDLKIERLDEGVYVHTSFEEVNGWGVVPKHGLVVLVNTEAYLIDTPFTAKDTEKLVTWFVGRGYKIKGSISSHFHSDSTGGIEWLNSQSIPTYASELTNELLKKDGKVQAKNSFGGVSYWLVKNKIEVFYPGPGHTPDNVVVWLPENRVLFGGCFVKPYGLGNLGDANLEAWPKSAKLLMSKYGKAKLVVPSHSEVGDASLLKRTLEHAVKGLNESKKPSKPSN

Regarding `O=C(O)c1cccc(C(=O)O)n1` [DPA], the concentration for half-maximal inhibition (IC50) at VIM-2 stood at 4.34 ± 0.67 µM; at IMP-28 it was 9.65 ± 0.62 µM.

For `O=C(Cc1ccccc1)N[C@@H]1C(=O)N2C(C(=O)O)=C(CSc3cccc4cccnc34)CS(=O)(=O)[C@H]12` [compound 8], the IC50 on VIM-2 came to 4.17 ± 0.65 µM; against NDM-1, 8.47 ± 1.02 µM; on IMP-28, 46.2 ± 3.13 µM.

`O=C(Cc1ccccc1)N[C@@H]1C(=O)N2C(C(=O)O)=C(COC(=O)c3cccc(C(=O)O)n3)CS[C@H]12` [compound 13]: the IC50 was found to be 1.87 ± 0.1 µM at VIM-2, 2.13 ± 0.07 µM against NDM-1 and 7.39 ± 0.1 µM on IMP-28.

Take `O=C(Cc1ccccc1)N[C@@H]1C(=O)N2C(C(=O)O)=C(CSc3cccc4cccnc34)C[S+]([O-])[C@H]12` (stereo partly shown) [compound 7]: the values for the IC50 on VIM-2, against NDM-1 and at IMP-28 were 6.35 ± 0.56 µM, 2.18 ± 0.14 µM and 71.9 ± 3.05 µM, respectively.

In the case of `O=C(Cc1ccccc1)N[C@@H]1C(=O)N2C(C(=O)O)=C(COC(=O)c3cccc(C(=O)O)n3)C[S+]([O-])[C@H]12` (stereo partly shown) [compound 14], the half-inhibitory concentration (IC50) at VIM-2 came out at 0.756 ± 0.056 µM; on NDM-1 it was 0.299 ± 0.005 µM; on IMP-28, 46.7 ± 2.76 µM.

As for `Sc1cccc2cccnc12` [8-TQ], the figures for the IC50 at VIM-2, against NDM-1 and on IMP-28 were 4.2 ± 1 µM, 2.99 ± 0.58 µM and 4.2 ± 0.11 µM, respectively.

With `O=C(Cc1ccccc1)N[C@@H]1C(=O)N2C(C(=O)O)=C(CSc3cccc4cccnc34)CS[C@H]12` [compound 6], the IC50 came to 3.64 ± 0.27 µM on VIM-2 and 10.3 ± 0.22 µM on IMP-28.

Take `O=C(Cc1ccccc1)N[C@@H]1C(=O)N2C(C(=O)O)=C(COC(=O)c3cccc(C(=O)O)n3)CS(=O)(=O)[C@H]12` [compound 15]: the 50% inhibitory concentration (IC50) on VIM-2 came to 10.8 ± 0.6 µM; on NDM-1, 18.8 ± 1.22 µM; on IMP-28, 61.9 ± 1.82 µM.

Values taken from publication PMC7986777 (Chemistry (Weinheim an Der Bergstrasse, Germany), 2021).
